From patent US12655125B2 (SIRONAX LTD., priority 2020, dated 2026)
Like-named read-outs stand apart in the source and are kept apart here.

System: HT-29 cells
Assay: HT29 Cells 0FBS Assay In Vitro (TNF-α/SMAC mimetic/zVAD-FMK induced necroptosis, CellTiter-Glo cell viability)
Assay type: cell-based
Settings: Homo sapiens, HT-29 cells, FBS free medium, TNF-α (10 ng/ml), SMAC mimetic (6 uM), zVAD-FMK (10 μM), 20 hours, geometric mean EC50
Description: Protocol for HT29 Cells 0FBS Assay In Vitro
• Cell line: HT-29 (ATCC® HTB-38™) • Culture medium: McCOY's 5 A, Gibco, Cat No. 16600-082 • FBS, Gibco, Cat No. 10099-141C • Trypsin: Gibco, Cat No. 25200-056 • DMSO: Sigma, Cat No. 67-68-5, 1 L • Assay plate: Corning #3903 • Compound dilution plate: Corning #3357 • Inducers: TNFα, GenScript, Cat No. ZO1001-50, • SmacM, Cat. No., HY-15989, MedChemExpress (MCE) • Z_VAD FMK, TargetMol, T6013 • Cell Titer-Glo® Luminescent Cell Viability Assay Kit: Promega, Cat No. G7573 • EnVision: PerkinElmer, 2105-0010 2. Cell Seeding of HT-29 Cells • 1) HT-29 cells were checked every day to make sure they are healthy and growing as expected. They were split sub-culturing when were approximately 80% confluent. • 2) First pre-warm the culture medium of McCOY's 5 A medium (Gibco, Cat No. 16600-082) with 10% FBS (Gibco, Cat No. 10099-141C) in 37° C. water bath for at least 30 min. • 3) Growing cells to desired level of confluency 80% in a T75 flask, aspirate the medium, and wash with warm PBS two times. • 4) Add 2-3 ml fresh warm trypsin (Gibco, Cat No. 25200-056) solution. Transfer the flask to a 37° C. incubator. • 5) After 5 minutes, tap the side of the flask, and examine the flask under a microscope for lifting. If necessary, return the cells to the incubator for an additional 5-10 minutes, with occasional tapping, until lifting is complete. • 6) Quickly neutralize the trypsin reaction by adding 6-9 ml cell culture medium, then transfer the cells to sterile 15 ml conical tubes. Pellet the cells by centrifugation at 300×g for 7 minutes, then decant the supernatant. • 7) Resuspend the cells in fresh cell culture medium. Do cell counting with hemocytometer. • 8) Seed 100 μl of 5,000 cells into each well of the sterile 96-well cell culture plate (Corning 3903) and culture overnight at 37° C. with 5% C02. 3. Compounds Titration and Treatment of HT-29 Cells • 1) All batches of compounds (CPDs) (e.g., compound 1-281) were dissolved in DMSO (Dimethyl sulfoxide) as 20 mM stock solution. • 2) Take 3 ul 20 mM stock solution of CPDs to 27 ul DMSO and mix well, continue the titration ratio of 1:3 (20 ul CPDs+40 ul DMSO), e.g., to give solutions of CPDS at 6.6 mM, 2.2 mM, etc., till the 10 points end. • 3) Take out assay plates with HT-29 cells from incubator, remove all culture medium then wash 1 time with 1×PBS, and change fresh McCOY's 5 A medium of FBS free with a cocktail of TNF-α (10 ng/ml), the SMAC mimetic (6 uM) and zVAD-FMK (10 μM) to stimulate the HT-29 cells to increase pRIPK1 levels and necroptosis. • 4) Add 0.5 μL of the diluted compound to the corresponding 96-well assay plates. • 5) Incubate the assay plates for 20 hours at 37° C. with 5% C02. 4. Performing Cell Viability Detection of HT-29 Cells after Treated with Compounds • 1) The CellTiter-Glo® Luminescent Cell Viability Assay was employed to detect the ATP levels of viable HT-29 cells. • 2) Equilibrate the CellTiter-Glo® buffer and the lyophilized substrate to room temperature prior to use. • 3) Resuspend the CellTiter-Glo® substrate with CellTiter-Glo® buffer, mix by gently vortexing to obtain a homogeneous solution. • 4) Pipette 20 μl the enzyme/substrate mixture by multi-channel pipette into the 96-well assay plates from step 5) under the Compounds titration and treatment stage. • 5) Place the plates on an orbital shaker and mix the contents for 3 minutes to induce cell lysis. • 6) Then allow the plates to incubate at room temperature for 10 minutes to stabilize luminescent signal. • 7) Read and record luminescence signal with EnVision. • 8) The geometric mean EC50 of the compounds were calculated from points response dose with duplicate. In Tables 2 and 4, activity is provided as follows: +++=0.1 nM≤EC50<100 nM; ++=100 nM≤EC50<1000 nM; +=1000 nM≤EC50<10000 nM.

[1] = read-out: Cell activity (EC50) of Compounds 117-281
[2] = read-out: Cell activity (EC50) of Compounds 1-116

Row | SMILES | EC50 [1] [nM] | EC50 [2] [nM]
1 | Cc1cnc(C)n1-c1cc(OC2CN(C(=O)N3N=CC[C@H]3c3cc(F)cc(F)c3)C2)c(F)cn1 [compound 182, (S)-(5-(3,5-difluorophenyl)-4,5-dihydro-1H-pyrazol-1-yl)(3-((2-(2,5-dimethyl-1H-imidazol-1-yl)-5-fluoropyridin-4-yl)oxy)azetidin-1-yl)methanone] | 0.1 to 100 | 
2 | Cc1c(N)nn(C)c1-c1cc(OC2CN(C(=O)N3N=CC[C@H]3c3cc(F)cc(F)c3)C2)c(F)cn1 [compound 101, (S)-(3-((2-(3-amino-1,4-dimethyl-11H-pyrazol-5-yl)-5-fluoropyridin-4-yl)oxy)azetidin-1-yl)(5-(3,5-difluorophenyl)-4,5-dihydro-1H-pyrazol-1-yl)methanone] |  | 0.1 to 100
3 | Cc1ncc(-c2ncc(F)c(OC3CN(C(=O)N4N=CC[C@H]4c4cc(F)cc(F)c4)C3)n2)s1 [compound 25, (S)-(5-(3,5-difluorophenyl)-4,5-dihydro-1H-pyrazol-1-yl)(3-((5-fluoro-2-(2-methylthiazol-5-yl)pyrimidin-4-yl)oxy)azetidin-1-yl)methanone] |  | 0.1 to 100
4 | Cc1nc(C#N)sc1-c1cc(OC2CN(C(=O)N3N=CC[C@H]3c3cc(F)cc(F)c3)C2)c(F)cn1 [compound 188, (S)-5-(4-((1-(5-(3,5-difluorophenyl)-4,5-dihydro-1H-pyrazole-1-carbonyl)azetidin-3-yl)oxy)-5-fluoropyridin-2-yl)-4-methylthiazole-2-carbonitrile] | 0.1 to 100 | 
5 | COC1CN(C(=O)c2cnn(C)c2-c2cc(OC3CN(C(=O)N4N=CC[C@H]4c4cc(F)cc(F)c4)C3)c(F)cn2)C1 [compound 74, (S)-(5-(3,5-difluorophenyl)-4,5-dihydro-1H-pyrazol-1-yl)(3-((5-fluoro-2-(4-(3-methoxyazetidine-1-carbonyl)-1-methyl-1H-pyrazol-5-yl)pyridin-4-yl)oxy)azetidin-1-yl)methanone] |  | 100 to 1000
6 | CC(C)NC(=O)c1cnn(C)c1-c1cc(OC2CN(C(=O)N3N=CC[C@H]3c3cc(F)cc(F)c3)C2)c(F)cn1 [compound 133, (S)-5-(4-((1-(5-(3,5-difluorophenyl)-4,5-dihydro-1H-pyrazole-1-carbonyl)azetidin-3-yl)oxy)-5-fluoropyridin-2-yl)-N-isopropyl-1-methyl-1H-pyrazole-4-carboxamide] | 0.1 to 100 | 
7 | Cc1c(NCCO)nn(C)c1-c1cc(OC2CN(C(=O)N3N=CC[C@H]3c3cc(F)cc(F)c3)C2)c(F)cn1 [compound 212, (S)-(5-(3,5-difluorophenyl)-4,5-dihydro-1H-pyrazol-1-yl)(3-((5-fluoro-2-(3-((2-hydroxyethyl)amino)-1,4-dimethyl-1H-pyrazol-5-yl)pyridin-4-yl)oxy)azetidin-1-yl)methanone] | 0.1 to 100 | 
8 | Cc1nn(-c2cc(OC3CN(C(=O)N4N=CC[C@H]4c4cc(F)cc(F)c4)C3)c(F)cn2)cc1C(N)=O [compound 272, (S)-1-(4-((1-(5-(3,5-difluorophenyl)-4,5-dihydro-1H-pyrazole-1-carbonyl)azetidin-3-yl)oxy)-5-fluoropyridin-2-yl)-3-methyl-11H-pyrazole-4-carboxamide] | 0.1 to 100 | 
9 | Cc1scnc1-c1cc(OC2CN(C(=O)N3N=CC[C@H]3c3cc(F)cc(F)c3)C2)c(F)cn1 [compound 14, (S)-(5-(3,5-difluorophenyl)-4,5-dihydro-1H-pyrazol-1-yl)(3-((5-fluoro-2-(5-methylthiazol-4-yl)pyridin-4-yl)oxy)azetidin-1-yl)methanone] |  | 0.1 to 100
10 | CNc1cnn(C)c1-c1cc(OC2CN(C(=O)N3N=CC[C@H]3c3cc(F)cc(F)c3)C2)c(F)cn1 [compound 54, (S)-(5-(3,5-difluorophenyl)-4,5-dihydro-1H-pyrazol-1-yl)(3-((5-fluoro-2-(1-methyl-4-(methylamino)-1H-pyrazol-5-yl)pyridin-4-yl)oxy)azetidin-1-yl)methanone] |  | 0.1 to 100
11 | Cc1ncsc1-c1ccc(F)c(OC2CN(C(=O)N3N=CC[C@H]3c3cc(F)cc(F)c3)C2)n1 [compound 10, (S)-(5-(3,5-difluorophenyl)-4,5-dihydro-1H-pyrazol-1-yl)(3-((3-fluoro-6-(4-methylthiazol-5-yl)pyridin-2-yl)oxy)azetidin-1-yl)methanone] |  | 0.1 to 100
12 | Cc1nn(-c2cc(OC3CN(C(=O)N4N=CC[C@H]4c4cc(F)cc(F)c4)C3)c(F)cn2)c(C)c1C(N)=O [compound 110, (S)-1-(4-((1-(5-(3,5-difluorophenyl)-4,5-dihydro-1H-pyrazole-1-carbonyl)azetidin-3-yl)oxy)-5-fluoropyridin-2-yl)-3,5-dimethyl-1H-pyrazole-4-carboxamide] |  | 0.1 to 100
13 | COCCn1cc(-c2cc(OC3CN(C(=O)N4N=CC[C@H]4c4cc(F)cc(F)c4)C3)c(F)cn2)c(C)n1 [compound 86, (S)-(5-(3,5-difluorophenyl)-4,5-dihydro-1H-pyrazol-1-yl)(3-((5-fluoro-2-(1-(2-methoxyethyl)-3-methyl-1H-pyrazol-4-yl)pyridin-4-yl)oxy)azetidin-1-yl)methanone] |  | 0.1 to 100
14 | Cc1nn(-c2cc(OC3CN(C(=O)N4N=CC[C@H]4c4cc(F)cc(F)c4)C3)c(F)cn2)c(C)c1C(=O)N1CCOCC1 [compound 184, (S)-(5-(3,5-difluorophenyl)-4,5-dihydro-1H-pyrazol-1-yl)(3-((2-(3,5-dimethyl-4-(morpholine-4-carbonyl)-1H-pyrazol-1-yl)-5-fluoropyridin-4-yl)oxy)azetidin-1-yl)methanone] | 0.1 to 100 | 
15 | Cc1nnn(C)c1-c1ncc(F)c(OC2CN(C(=O)N3N=CC[C@H]3c3cc(F)cc(F)c3)C2)n1 [compound 46, (S)-(5-(3,5-difluorophenyl)-4,5-dihydro-1H-pyrazol-1-yl)(3-((2-(1,4-dimethyl-1H-1,2,3-triazol-5-yl)-5-fluoropyrimidin-4-yl)oxy)azetidin-1-yl)methanone] |  | 0.1 to 100
16 | Cc1c(NCC(N)=O)nn(C)c1-c1cc(OC2CN(C(=O)N3N=CC[C@H]3c3cc(F)cc(F)c3)C2)c(F)cn1 [compound 145, (S)-2-((5-(4-((1-(5-(3,5-difluorophenyl)-4,5-dihydro-1H-pyrazole-1-carbonyl)azetidin-3-yl)oxy)-5-fluoropyridin-2-yl)-1,4-dimethyl-1H-pyrazol-3-yl)amino)acetamide] | 0.1 to 100 | 
17 | Cc1ccc(C)n1-c1cc(OC2CN(C(=O)N3N=CC[C@H]3c3cc(F)cc(F)c3)C2)c(F)cn1 [compound 147, (S)-(5-(3,5-difluorophenyl)-4,5-dihydro-1H-pyrazol-1-yl)(3-((2-(2,5-dimethyl-1H-pyrrol-1-yl)-5-fluoropyridin-4-yl)oxy)azetidin-1-yl)methanone] | 0.1 to 100 | 
18 | Cn1ncc(C(=O)N2CCCC2)c1-c1cc(OC2CN(C(=O)N3N=CC[C@H]3c3cc(F)cc(F)c3)C2)c(F)cn1 [compound 75, (S)-(5-(3,5-difluorophenyl)-4,5-dihydro-1H-pyrazol-1-yl)(3-((5-fluoro-2-(1-methyl-4-(pyrrolidine-1-carbonyl)-1H-pyrazol-5-yl)pyridin-4-yl)oxy)azetidin-1-yl)methanone] |  | 1000 to 10000
